# From patent publication US8394786B2, “Quinazoline derivatives” (Janssen Pharmaceutica N.V., priority 2003, dated 2013)
# Columns and labels:
# [1] = system: SKOV3 cells; experiment: Serum starved proliferation assay on the ovarian carcinoma SKOV3 cells (C3); format: cell-based; conditions: Homo sapiens, SK-OV-3, 72 h, EGF stimulated (100 ng/ml, 72 hours, serum free) or 72 hours with compounds; MTT cell viability assay; read-out: SKOV3 cell (C3): pIC50 (converted)
# Protocol: The ovarian carcinoma cell line (SKOV3) was used in an epidermal growth factor stimulated cell proliferation assay, to assess the inhibitory effect of the compounds on EGF in whole cells.
# In a first step the SKOV3 cells were incubated for 24 hours in the presence of 10% FCS serum. In the second step the cells were incubated with the compounds to be tested in a serum free condition (37° C. and 5% (v/v) CO2) and subsequently stimulated for 72 hours with EGF at a final concentration of 100 ng/ml. The effect of the compounds on the EGF stimulation was finally assessed in a standard MTT cell viability assay.
# Alternatively, the SKOV3 cells were incubated for 24 hours in the presence of 10% FCS serum. In the second step the cells were incubated for 72 hours with the compounds to be tested and the effect of the compounds on cell proliferation was finally assessed in a standard MTT cell viability assay.
# [2] = biological target: EGFR (Homo sapiens, UniProt P00533); experiment: In vitro inhibition of EGFR, Flash Plate or glass-fiber filter technology (C2); format: biochemical; set-up: 0.5 μg EGFR-kinase domain/well; conditions: EGFR-kinase domain, 5.0 μM unlabeled ATP, read-out: Kinase activity.(C2): pIC50 (converted)
# Protocol: The in vitro inhibition of EGFR was assessed using either the Flash Plate technology or the glass-fiber filter technology as described by Davies, S. P. et al., Biochem J. (2000), 351; p. 95-105. The Flash Plate technology is generally described by B. A. Brown et al. in High Throughput Screening (1997), p. 317-328. Editor(s): Devlin, John P. Publisher: Dekker, New York, N.Y.
# In the Flash Plate EGFR kinase reaction assay, a kinase substrate consisting of biotinylated poly(L-glutamic acid-L-tyrosine) (poly(GT)biotin), is incubated with the aforementioned protein in the presence of (^33P) radiolabeled ATP. (^33P) phosphorylation of the substrate is subsequently measured as light energy emitted using a streptavidin-coated Flash Plate (PerkinElmer Life Sciences) by trapping and quantifying the binding of the biotin tagged and radiolabeled substrate.
# The EGFR kinase reaction is performed at 30° C. for 60 minutes in a 96-well microtiter FlashPlate (PerkinElmer Life Sciences). For each of the tested compounds a full dose response 1·10^−6M to 1·10^−10M has been performed. IRESSA° and Tarceva™ (erlotinib) were used as reference compounds. The 100 μl reaction volume contains 54.5 mM TrisHCl pH 8.0, 10 mM MgCl2, 100 μM Na3VO4, 5.0 μM unlabeled ATP, 1 mM DTT, 0.009% BSA, 0.8 μCi AT^33P, 0.35 μg/well poly(GT)biotin and 0.5 μg EGFR-kinase domain/well.
# The reaction is stopped by aspirating the reaction mixture and washing the plate 3× with 200 μl wash/stop buffer (PBS+100 mM EDTA). After the final wash step 200 μl of wash/stop buffer was added to each well and the amount of phosphorylated (^33P) Poly(GT)biotin determined by counting (30 sec/well) in a microtiterplate scintillation counter.
# In the glass-fiber filter technology EGFR kinase reaction assay, a kinase substrate consisting of poly(L-glutamic acid-L-tyrosine) (poly(GT)), is incubated with the aforementioned protein in the presence of (^33P) radiolabeled ATP. (^33P) Phosporylation of the substrate is subsequently measured as radioactivity bound on a glassfiber-filter.
# The EGFR kinase reaction is performed at 25° C. for 10 minutes in a 96-well microtiterplate. For each of the tested compounds a full dose response 1·10^−6M to 1·10^−10M has been performed. IRESSA° and Tarceva™ (erlotinib) were used as reference compounds. The 25 μl reaction volume contains 60 mM TrisHCl pH 7.5, 3 mM MgCl2, 3 mM Mn Cl2, 3 μM Na3VO4, 50 μg/ml PEG20000, 5.0 μM unlabeled ATP, 1 mM DTT, 0.1 μCi AT^33P, 62.5 ng/well poly(GT) and 0.5 μg EGFR-kinase domain/well.
# The reaction is stopped by adding 5 μl of a 3% phosphoric acid solution. 10 μl of the reaction mixture is then spotted onto a Filtermat A filter (Wallac) and washed 3 times for 5 min. in 75 mM phosphoric acid and 1 time for 5 min. in methanol prior to drying and quantification on the Typhoon (Amersham) using a LE phosphorage storage screen.
# EGFR, sequence (P00533 712-979 limits assumed): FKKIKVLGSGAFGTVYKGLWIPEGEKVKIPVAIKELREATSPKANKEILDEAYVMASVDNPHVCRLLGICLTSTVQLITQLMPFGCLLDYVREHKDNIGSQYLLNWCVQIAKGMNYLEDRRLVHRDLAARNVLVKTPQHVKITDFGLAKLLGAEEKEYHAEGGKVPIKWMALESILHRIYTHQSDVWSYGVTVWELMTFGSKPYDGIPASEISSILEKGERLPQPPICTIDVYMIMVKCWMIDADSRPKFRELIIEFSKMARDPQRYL
IC50 [1] [nM],IC50 [2] [nM],Structure (SMILES)
1260,63.1,"COc1cc2ncnc3c2cc1OCC(=O)NCCCC(=O)NCCc1ccc(Cl)cc1N3 [Compound 161, 4,6-ethanediylidene-8H-pyrimido[4,5-b][6,1,9,14]benzoxatriazacyclooctadecine-9,14-dione, 20-chloro-10,11,12,13,15,16,17,22-octahydro-23-methoxy-]"
158,398,"COc1cc2ncnc3c2cc1OCCC=CCCCC(=O)NCc1ccc(Cl)cc1N3 [Compound 108, 4,6-ethanediylidene-8H-pyrimido[4,5-b][6,1,15]benzoxadiazacyclooctadecin-15(16H)-one, 20-chloro-9,12,13,14,17,22-hexahydro-23-methoxy-]"
10000,2510,"COc1cc2ncnc3c2cc1OCC(=O)NC(C(C)C)C(=O)NCc1ccc(Cl)cc1N3 (stereo not drawn) [Compound 121, 4,6-ethanediylidenepyrimido[4,5-b][6,1,9,12]benzoxatriazacyclopentadecine-9,12(8H,13H)-dione, 17-chloro-10,11,14,19-tetrahydro-20-methoxy-11-(1-methylethyl)-]"
10000,251,"COc1cc2ncnc3c2cc1OCC(=O)NC(CO)C(=O)NCCc1ccc(Cl)cc1N3 (stereo not drawn) [Compound 148, 4,6-ethanediylidene-8H-pyrimido[4,5-b][6,1,9,12]benzoxatriazacyclohexadecine-9,12-dione, 18-chloro-10,11,13,14,15,20-hexahydro-11-(hydroxymethyl)-21-methoxy-]"
1580,316,"COCCNCC(=O)N1CCOc2cc3c(ncnc3cc2OC)Nc2cc(Cl)ccc2CCCNC(=O)C1 [Compound 48, 4,6-ethanediylidenepyrimido[4,5-b][6,1,9,12]benzoxatriazacycloheptadecin-12(13H)-one, 19-chloro-8,9,10,11,14,15,16,21-octahydro-22-methoxy-10-[[(2-methoxyethyl)amino]acetyl]-]"
10000,6310,"COc1cc2ncnc3c2cc1OCC(=O)NC(C)C(=O)NCc1ccccc1N3 (stereo not drawn) [Compound 123, 4,6-ethanediylidenepyrimido[4,5-b][6,1,9,12]benzoxatriazacyclopentadecine-9,12(8H,13H)-dione, 10,11,14,19-tetrahydro-20-methoxy-11-methyl-]"
794,398,"COc1cc2ncnc3c2cc1OCCCCC(=O)N1CCCC1C(=O)NCc1ccc(Cl)cc1N3 (stereo not drawn) [Compound 134, 4,6-ethanediylidene-8H-pyrimido[4,5-b]pyrrolo[1,2-l][6,1,12,15]benzoxatriazacyclooctadecine-12,17(18H)-dione, 22-chloro-9,10,11,14,15,16,16a,19,24-nonahydro-25-methoxy-]"
200,501,"COc1cc2ncnc3c2cc1OCCCNCC(=O)NCCCc1ccc(Cl)cc1N3 [Compound 55, 4,6-ethanediylidene-8H-pyrimido[4,5-b][6,1,10,13]benzoxatriazacyclooctadecin-13(14H)-one, 20-chloro-9,10,11,12,15,16,17,22-octahydro-23-methoxy-]"
1000,2000,"COc1cc2ncnc3c2cc1OCC(=O)NC(C)C(=O)NCc1ccc(Cl)cc1N3 (stereo not drawn) [Compound 120, 4,6-ethanediylidenepyrimido[4,5-b][6,1,9,12]benzoxatriazacyclopentadecine-9,12(8H,13H)-dione, 17-chloro-10,11,14,19-tetrahydro-20-methoxy-11-methyl-]"
794,398,"COCCCNCC(=O)N1CCOc2cc3c(ncnc3cc2OC)Nc2cc(Cl)ccc2CCCNC(=O)C1 [Compound 49, 4,6-ethanediylidenepyrimido[4,5-b][6,1,9,12]benzoxatriazacycloheptadecin-12(13H)-one, 19-chloro-8,9,10,11,14,15,16,21-octahydro-22-methoxy-10-[[(3-methoxypropyl)amino]acetyl]-]"
1260,126,"COc1cc2ncnc3c2cc1OCC1CCCN1CC(=O)NCCCc1ccc(Cl)cc1N3 (stereo not drawn) [Compound 54, 1,22-ethanediylidene-5H,17H-pyrimido[4,5-b]pyrrolo[2,1-h][6,1,9,12]benzoxatriazacycloheptadecin-14(15H)-one, 7-chloro-10,11,12,13,18,19,19a,20-octahydro-24-methoxy-]"
398,1000,"COc1cc2ncnc3c2cc1OCCCCCCOc1cc(NC(=O)c2ccc(F)cc2)ccc1N3 [Compound 64, benzamide, 4-fluoro-N-(8,9,10,11,12,13-hexahydro-20-methoxy-4,6-ethanediylidene-19H-pyrimido[4,5-b][6,13,1]benzodioxaazacyclopentadecin-16-yl)-]"
63.1,501,"COc1cc2ncnc3c2cc1OCCNCC(=O)NCCCc1ccc(Cl)cc1N3 [Compound 42, 4,6-ethanediylidenepyrimido[4,5-b][6,1,9,12]benzoxatriazacycloheptadecin-12(13H)-one, 19-chloro-8,9,10,11,14,15,16,21-octahydro-22-methoxy-]"
398,6310,"COc1cc2ncnc3c2cc1OCC1CCN(CC1)CC(=O)NCCCc1ccc(Cl)cc1N3 [Compound 57, 13H-4,6-ethanediylidene-9,12-ethanopyrimido[4,5-b][6,1,11,14]benzoxatriazacyclononadecin-14(15H)-one, 21-chloro-8,9,10,11,16,17,18,23-octahydro-26-methoxy-]"
251,251,"COc1cc2ncnc3c2cc1OCCCCC(=O)NC(C)(C)C(=O)NCc1ccc(Cl)cc1N3 [Compound 137, 4,6-ethanediylidene-8H-pyrimido[4,5-b][6,1,12,15]benzoxatriazacyclooctadecine-12,15(16H)-dione, 20-chloro-9,10,11,13,14,17,22-heptahydro-23-methoxy-14,14-dimethyl-]"
200,200,"COc1cc2ncnc3c2cc1OCC(=O)N1CCCC1C(=O)NCCc1ccc(Cl)cc1N3 (stereo not drawn) [Compound 140, 1,21-ethanediylidene-5H-pyrimido[4,5-b]pyrrolo[1,2-i][6,1,9,12]benzoxatriazacyclohexadecine-13,18(19H)-dione, 7-chloro-10,11,12,13a,14,15,16-heptahydro-23-methoxy-]"
1000,3980,"COc1cc2ncnc3c2cc1OCC(=O)NC(C)(C)C(=O)NCCc1ccc(Cl)cc1N3 [Compound 135, 4,6-ethanediylidene-8H-pyrimido[4,5-b][6,1,9,12]benzoxatriazacyclohexadecine-9,12-dione, 18-chloro-10,11,13,14,15,20-hexahydro-21-methoxy-11,11-dimethyl-]"
2000,2000,"COc1cc2ncnc3c2cc1OCCC1CCN(CC1)CC(=O)NCCCc1ccc(Cl)cc1N3 [Compound 58, 14H-4,6-ethanediylidene-10,13-ethano-8H-pyrimido[4,5-b][6,1,12,15]benzoxatriazacycloeicosin-15(16H)-one, 22-chloro-9,10,11,12,17,18,19,24-octahydro-27-methoxy-]"
